Several values for one entry are separate records, joined by “and”; a condition that tells them apart may be missing. Identical values can stand only once. Inconclusive results and toxic doses are left out. Rule as the data show it: active = T/C of 150% or more; inactive = T/C below 125%.
System: L1210 leukemia ip in BDF1 mice, survival T/C
Test: NCI In Vivo Anticancer Drug Screen. Data for tumor model L1210 Leukemia (intraperitoneal) in B6D2F1 (BDF1) mice
Details: endpoint: mean survival time, higher = longer survival
Procedure, shortened: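 Survival endpoint. Drug-treated group vs vehicle group, expressed as T divided by C. Tumor passaged by transplantation.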

[1] = dose: 50.0 mg/kg/injection, schedule: Q01DX009 (ip), vehicle: saline with Tween-80
[2] = dose: 100.0 mg/kg/injection, schedule: Q01DX009 (ip), vehicle: saline with Tween-80
[3] = dose: 200.0 mg/kg/injection, schedule: Q01DX009 (ip), vehicle: saline with Tween-80
[4] = dose: 100.0 mg/kg/injection, schedule: Q04DX003 (ip), vehicle: saline with Tween-80
[5] = dose: 200.0 mg/kg/injection, schedule: Q04DX003 (ip), vehicle: saline with Tween-80
[6] = dose: 100.0 mg/kg/injection, schedule: Q01DX001 (ip), vehicle: other
[7] = dose: 400.0 mg/kg/injection, schedule: Q01DX001 (ip), vehicle: other
[8] = dose: 100.0 mg/kg/injection, schedule: Q04DX002 (ip), vehicle: saline
[9] = dose: 200.0 mg/kg/injection, schedule: Q04DX002 (ip), vehicle: saline
[10] = dose: 400.0 mg/kg/injection, schedule: Q04DX002 (ip), vehicle: saline
[11] = dose: 100.0 mg/kg/injection, schedule: Q01DX009 (ip), vehicle: Klucel (hydroxypropylcellulose) (HPC)
[12] = dose: 200.0 mg/kg/injection, schedule: Q01DX009 (ip), vehicle: Klucel (hydroxypropylcellulose) (HPC)
[13] = dose: 400.0 mg/kg/injection, schedule: Q01DX009 (ip), vehicle: Klucel (hydroxypropylcellulose) (HPC)
[14] = dose: 100.0 mg/kg/injection, schedule: Q04DX003 (ip), vehicle: Klucel (hydroxypropylcellulose) (HPC)
[15] = dose: 400.0 mg/kg/injection, schedule: Q04DX003 (ip), vehicle: Klucel (hydroxypropylcellulose) (HPC)
[16] = dose: 100.0 mg/kg/injection, schedule: Q01DX001 (ip), vehicle: carboxymethylcellulose (CMC)
[17] = dose: 200.0 mg/kg/injection, schedule: Q01DX001 (ip), vehicle: carboxymethylcellulose (CMC)
[18] = dose: 400.0 mg/kg/injection, schedule: Q01DX001 (ip), vehicle: carboxymethylcellulose (CMC)

Measured: T/C

O=C1Nc2ccccc2/C1=C/Cl
inactive: dose: 6.25 mg/kg/injection, schedule: Q04DX002 (ip), vehicle: saline with Tween-80 96 % of control | dose: 12.5 mg/kg/injection, schedule: Q04DX002 (ip), vehicle: saline with Tween-80 100 % of control | dose: 25.0 mg/kg/injection, schedule: Q04DX002 (ip), vehicle: saline with Tween-80 103 % of control

CCOc1ccc(C=C(C#N)C#N)cc1OCC
inactive: dose: 100.0 mg/kg/injection, schedule: Q01DX001 (ip), vehicle: saline 105 % of control | dose: 200.0 mg/kg/injection, schedule: Q01DX001 (ip), vehicle: saline 102 % of control | dose: 400.0 mg/kg/injection, schedule: Q01DX001 (ip), vehicle: saline 90 % of control

CC(C)=CCc1ccc(Cl)cc1
inactive: [1] 94 % of control | [2] 105 % of control | [3] 102 % of control

CN(C)CCc1ccc(Nc2ccnc3cc(Cl)ccc23)cc1
inactive: dose: 75.0 mg/kg/injection, schedule: Q01DX001 (ip), vehicle: saline 101 % of control | dose: 150.0 mg/kg/injection, schedule: Q01DX001 (ip), vehicle: saline 98 % of control | dose: 300.0 mg/kg/injection, schedule: Q01DX001 (ip), vehicle: saline 95 % of control

Cc1nc(Cl)c(C#N)nc1C
inactive: [1] 100 % of control | [2] 96 % of control | [4] 100 % of control | [3] 89 % of control | [5] 94 % of control

CC1(OC(=O)c2ccc([N+](=O)[O-])cc2)CC2CCC1C2 (stereo unspecified)
inactive: dose: 100.0 mg/kg/injection, schedule: Q01DX001 (ip), vehicle: saline with Tween-80 98 % of control | dose: 200.0 mg/kg/injection, schedule: Q01DX001 (ip), vehicle: saline with Tween-80 91 % of control | dose: 400.0 mg/kg/injection, schedule: Q01DX001 (ip), vehicle: saline with Tween-80 104 % of control

CC(=O)C(Sc1ccccc1[N+](=O)[O-])C(C)=O.[Cr]
inactive: dose: 50.0 mg/kg/injection, schedule: Q01DX001 (ip), vehicle: other 94 % of control | [6] 88 % of control | [7] 88 % of control

c1cc[c]([Sn]([c]2ccccc2)([c]2ccccc2)[n]2cccc2)cc1
inactive: dose: 3.13 mg/kg/injection, schedule: Q01DX009 (ip), vehicle: saline with Tween-80 98 % of control | dose: 6.25 mg/kg/injection, schedule: Q01DX009 (ip), vehicle: saline with Tween-80 102 % of control | dose: 12.5 mg/kg/injection, schedule: Q01DX009 (ip), vehicle: saline with Tween-80 100 % of control | [2] 94 % of control

O=C(CCC1CCCC1)c1ccccc1
inactive: dose: 12.5 mg/kg/injection, schedule: Q04DX002 (ip), vehicle: saline 100 % of control | dose: 25.0 mg/kg/injection, schedule: Q04DX002 (ip), vehicle: saline 98 % of control | dose: 50.0 mg/kg/injection, schedule: Q04DX002 (ip), vehicle: saline 98 % of control | [8] 98 % of control | [9] 98 % of control | [10] 91 % of control

CCOC(=O)C(O)C(Cl)(c1ccccc1)C(C)C (stereo unspecified)
inactive: [8] 100 % of control | [9] 114 % of control | [10] 111 % of control

NC(N)=NC(N)=Nc1ccccc1-c1ccccc1
inactive: [11] 111 % of control | [12] 103 % of control | [13] 86 % of control

C(=Nc1ccccc1)c1ccccc1B1Oc2ccccc2O1
inactive: [11] 100 % of control | [12] 96 % of control | [13] 119 % of control

S=c1[nH]c(=S)c2[nH]c(=S)[nH]c2[nH]1
inactive: [11] 91 % of control | [12] 93 % of control | [13] 95 % of control

Cc1c2cnccc2c(C)c2c1c1ccccc1n2CCCCl
inactive: dose: 100.0 mg/kg/injection, schedule: Q01DX001 (ip), vehicle: Klucel (hydroxypropylcellulose) (HPC) 102 % of control | [14] 96 % of control | dose: 200.0 mg/kg/injection, schedule: Q01DX001 (ip), vehicle: Klucel (hydroxypropylcellulose) (HPC) 96 % of control | dose: 200.0 mg/kg/injection, schedule: Q04DX003 (ip), vehicle: Klucel (hydroxypropylcellulose) (HPC) 94 % of control | dose: 400.0 mg/kg/injection, schedule: Q01DX001 (ip), vehicle: Klucel (hydroxypropylcellulose) (HPC) 94 % of control | [15] 96 % of control

CC/C=C\CCCCCCO
inactive: [16] 97 % of control and 94 % of control | [17] 94 % of control | [18] 89 % of control and 97 % of control

Cc1cc(NC(=O)c2ccccc2)c(C)cc1N
inactive: [16] 92 % of control | [17] 99 % of control | [18] 101 % of control

Oc1ccc(Cl)c2c1CCC2
inactive: [1] 110 % of control | [2] 102 % of control | [4] 101 % of control | [3] 104 % of control | [5] 101 % of control

CCCCCCC(=O)NC1=C(N2CC2)C(=O)C(NC(=O)CCCCCC)=C(N2CC2)C1=O
inactive: dose: 25.0 mg/kg/injection, schedule: Q01DX009 (ip), vehicle: saline 110 % of control | dose: 45.0 mg/kg/injection, schedule: Q01DX009 (ip), vehicle: other 124 % of control | dose: 50.0 mg/kg/injection, schedule: Q01DX009 (ip), vehicle: saline 122 % of control | dose: 51.0 mg/kg/injection, schedule: Q01DX Z (ip), vehicle: carboxymethylcellulose (CMC) 124 % of control | dose: 51.0 mg/kg/injection, schedule: Q01DX Z (ip), vehicle: methylcellulose (MC) 107 % of control | dose: 65.0 mg/kg/injection, schedule: Q01DX009 (ip), vehicle: other 118 % of control | dose: 66.0 mg/kg/injection, schedule: Q01DX009 (ip), vehicle: Klucel (hydroxypropylcellulose) (HPC) 113 % of control | dose: 76.0 mg/kg/injection, schedule: Q01DX Z (ip), vehicle: methylcellulose (MC) 96 % of control | [6] 96 % of control | [11] 101 % of control | dose: 100.0 mg/kg/injection, schedule: Q01DX009 (ip), vehicle: saline 123 % of control | [14] 111 % of control | dose: 100.0 mg/kg/injection, schedule: Q04DX003 (ip), vehicle: saline 103 % of control | dose: 115.0 mg/kg/injection, schedule: Q01DX Z (ip), vehicle: carboxymethylcellulose (CMC) 120 % of control | dose: 150.0 mg/kg/injection, schedule: Q01DX009 (ip), vehicle: Klucel (hydroxypropylcellulose) (HPC) 97 % of control and 99 % of control | dose: 172.5 mg/kg/injection, schedule: Q01DX Z (ip), vehicle: carboxymethylcellulose (CMC) 114 % of control | dose: 200.0 mg/kg/injection, schedule: Q01DX001 (ip), vehicle: other 108 % of control | dose: 200.0 mg/kg/injection, schedule: Q01DX009 (ip), vehicle: other 100 % of control | dose: 200.0 mg/kg/injection, schedule: Q01DX009 (ip), vehicle: saline 94 % of control | dose: 200.0 mg/kg/injection, schedule: Q04DX003 (ip), vehicle: saline 113 % of control | dose: 264.0 mg/kg/injection, schedule: Q04DX003 (ip), vehicle: Klucel (hydroxypropylcellulose) (HPC) 114 % of control | dose: 264.0 mg/kg/injection, schedule: Q04DX003 (ip), vehicle: other 111 % of control | [7] 110 % of control | [15] 118 % of control
